In patent US8889140B2, “Compositions and methods for tissue repair” (TransTarget, Inc., priority 2007, dated 2014):
“Also recorded” adds a separate entry of the source. Where no end group is shown, it is not given here.

Key:
Format in all cases: cell-based, human
HUVEC cells [1] = experiment: Haptotactic cell migration assay, modified Boyden chamber; conditions: 6 hours; for haptotactic migration compared to untreated membranes: membrane coated at 500 ng/ml to 300 μg/ml, normalized to uncoated control
Experimental: In order to test the ability of EMD peptides to recruit cells haptotactic migration assays with Hep I (SEQ ID NO:1), Hep ITT (SEQ TD NO:2), FC/HV (SEQ ID NO:3), RGD (SEQ ID NO:4), FN, and Col IV were conducted using a modified Boyden chamber. Haptotactic migration was performed in triplicate and was assessed using a modified Boyden chamber (Corning, CoStar, Acton, Mass.). The assay was carried out as follows: the lower chamber was first blocked with 10% BSA for at least 30 minutes at 37° C. followed by 3 washings with PBS. The lower surface of the membrane on the upper chamber was coated with approximately 10 μL of protein or EMD peptide solution having a concentration between 500 ng/mL-300 μg/mL and allowed to incubate for 15-30 minutes at 37° C. and then allowed to air dry at room temperature under aseptic conditions. At least one assay was performed for each concentration. Basal cell media supplemented with 0.5% BSA was then added to the lower chamber and 100 μL of H U V ECs (1×10^4 to 2×10^4 cells) in the same cell media was added to the upper chamber. The chambers were then incubated at 37° C., 5.0% CO2 for 6 hours. Upon completion of the incubation period, the cells on the membrane of the upper chamber were fixed with 4% paraformaldehyde followed by removal of the cells on the upper side of the membrane with a Q-tip. Next, the membrane was carefully removed from the chamber, dipped in a 1:4000 dilution of Hoechst 33342 (Invitrogen, Carlsbad, Calif.) and placed on a glass slide. Using a fluorescent microscope (Nikon Eclipse E800) at 10× magnification, five random fields of view were photographed on each membrane for determination of the area cell density.
In order to allow for direct comparison, the area cell density of migrated cells was normalized to the area cell density of migrated cells on the uncoated (0 μg/mL) control membrane. See, FIG. 3.

HUVEC cells [2] = experiment: Cell attachment assay (MTS) on coated wells; conditions: substrate coated at 20, 50, 100 μg/ml (fibronectin 10 and 100 μg/ml), 30 minute incubation, vs BSA 2 mg/ml
Experimental: Immulon 1B, untreated 96-well plates (CoStar), and untreated 35 mm dishes (CoStar) were purchased from Fisher Scientific (Pittsburg, Pa.). Human umbilical vein endothelial cells (HUVECs), cell culture media and supplements were purchased from Lonza (Basel, Switzerland). EMD peptides as shown in SEQ ID Nos: 1-4, were synthesized by Commonwealth Biotechnologies Inc., (Richmond, Va.). Amino acid analysis was performed on the peptides to verify the amino acid sequence.
For the adhesion studies 96-well Immulon 1B plates were used. Various concentrations of the EMD peptides (SEQ ID Nos: 1-4) were tested for their ability to bind cells, and compared to the full-length protein, from which the EMD peptides were derived as positive controls. Bovine Serum Albumin (BSA) treated wells were used as a negative control. Full-length collagen IV, and the EMD peptides Hep I, Hep III, FCHV, and RGD were tested at concentrations of 20 μg/ml, 50 μg/ml, and 100 μg/ml. Full length fibronectin was tested at concentrations of 10 μg/ml and 100 μg/ml. Negative control wells were coated with BSA at a concentration of 2 mg/ml. Fifty μL of protein or EMD peptide solutions at the various concentrations was added separate wells and incubated at 37° C. for at least 18 hours. The protein or peptide solution was then removed and the wells were blocked for 2 hours at 37° C. with 2 mg/mL BSA solution. Following the blocking procedure, wells were washed twice with PBS. HUVEC cells (Lonza, Basel Switzerland) were then added to the wells at a concentration of 5×10^3 to 1×10^4 cells per well. Following a thirty-minute incubation, […] wells were washed and cell adhesion was determined using an MTS (3-(4,5-dimethylthiazol-2-yl)-5-(3-carboxymethoxyphenyl)-2-(4-sulfophenyl)-2H-tetrazolium, inner salt) tetrazolium/formazan assay (Promega, Madison, Wis.) according to the manufacturer's instructions.

HUVEC cells [3] = experiment: Cell proliferation assay (MTS) on coated wells; conditions: substrate coated at 20, 50, 100 μg/ml (fibronectin 10 and 100 μg/ml), 1-4 days, vs BSA 2 mg/ml, p<0.05
Experimental: To determine if EMD peptides can activate cells by stimulating cellular proliferation, 96-well plates coated using the same protocol as described above for the cell attachment assay was used. Following treatment of the wells, HUVEC cells (Lonza, Basel Switzerland) were then added to the wells at a concentration of 5×10^3 to 1×10^4 cells per well and incubated under standard culture conditions for 1, 2, 3 or 4 days. Cell proliferation was then determined at the end of the incubation period using an MTS tetrazolium/formazan assay (Promega, Madison, Wis.) according to the manufacturer's instructions.

Substance | concentrations showing statistically significant migration (HUVEC cells [1]; coated membrane, vs uncoated control membrane) | haptotactic migration compared to untreated membranes (HUVEC cells [1]; p<0.05) | cell attachment compared to BSA control (HUVEC cells [2]; p<0.05) | cell proliferation (cell activation) compared to BSA control (HUVEC cells [3]) | cell attachment compared to BSA control (HUVEC cells [2]; p<0.05, listed as Fibronectin) | haptotactic migration compared to untreated membranes (HUVEC cells [1]; p<0.05, listed as FC/HV)
TAGSCLRKFSTMY-OH [Hep I] | greater than 1 μg/ml | promoted haptotactic migration | not statistically different from that of the BSA treated wells; also recorded: not significantly different from that of the BSA control | increased cellular proliferation; also recorded: significantly better at promoting cell proliferation |  | 
GRGDSPASSPISC-OH |  | significant migration compared to control; also recorded: promoted haptotactic migration | increased cell attachment; also recorded: significantly better at promoting cell attachment | increased cellular proliferation; also recorded: significantly better at stimulating cellular proliferation |  | 
fibronectin: Full length fibronectin, positive control [reference compound] |  | promoted haptotactic migration | significantly better at promoting cell attachment | increased cellular proliferation; also recorded: significantly better at stimulating cellular proliferation | increased cell attachment | 
WQPPRARI-OH [FCHV] |  | did not promote haptotactic migration | not statistically different from that of the BSA treated wells; also recorded: not significantly different from that of the BSA control | not different from that of cells cultured in wells coated with BSA; also recorded: not statistically different as compared to the BSA control |  | did not show statistically significant migration at any of the concentrations tested
GEFYFDLRLKGDKY-OH [Hep III] |  | significant migration compared to control; also recorded: promoted haptotactic migration | increased cell attachment; also recorded: significantly better at promoting cell attachment | increased cellular proliferation; also recorded: significantly better at promoting cell proliferation |  | 
